Reference: a compilation of properties of binary mixtures (doi:10.1016/j.molliq.2020.113457)

Test: xn = mol fraction of the nth substance listed
Settings: 101 kPa

CCCC[n+]1ccn(C)c1.F[B-](F)(F)F + C=CC(=O)OC
x1 = 1
Settings	speed of sound [m/s]	viscosity [mPa·s]
293.15 K	1576.9	127.6
298.15 K	1565.8	98.9
308.15 K	1542.7	58.4
318.15 K	1518	38.72

C=CC(=O)OC + CCCC[n+]1ccn(C)c1.F[B-](F)(F)F
Settings	speed of sound [m/s]	viscosity [mPa·s]
293.15 K, x2 = 0	1204.7	0.502
293.15 K, x2 = 0.0694	1238.9	0.966
293.15 K, x2 = 0.1889	1296	3.853
293.15 K, x2 = 0.239	1318.8	6.24
293.15 K, x2 = 0.3354	1360.5	12.75
293.15 K, x2 = 0.4317	1399.7	21.82
293.15 K, x2 = 0.5005	1426	29.86
293.15 K, x2 = 0.5693	1451	39.21
293.15 K, x2 = 0.6532	1479.7	52.4
293.15 K, x2 = 0.737	1506.4	67.4
293.15 K, x2 = 0.7927	1523	78.5
293.15 K, x2 = 0.8484	1538.7	90.5
298.15 K, x2 = 0.0694	1218.7	0.725
298.15 K, x2 = 0.1387	1252.9	1.415
298.15 K, x2 = 0.1889	1276.8	2.577
298.15 K, x2 = 0.239	1300	4.295
298.15 K, x2 = 0.3354	1342.7	9.16
298.15 K, x2 = 0.4317	1382.7	16.07
298.15 K, x2 = 0.5005	1409.6	22.26
298.15 K, x2 = 0.5693	1435.3	29.5
298.15 K, x2 = 0.6532	1464.7	39.74
298.15 K, x2 = 0.737	1492.2	51.5
298.15 K, x2 = 0.7927	1509.3	60.2
298.15 K, x2 = 0.8484	1525.6	69.6
298.15 K, x2 = 0.9242	1546.4	83.5
303.15 K, x2 = 0	1162.3	0.428
303.15 K, x2 = 0.0694	1198.4	0.555
303.15 K, x2 = 0.1387	1233.4	–
303.15 K, x2 = 0.1889	1257.7	1.493
303.15 K, x2 = 0.239	1281.1	2.654
303.15 K, x2 = 0.5005	1393.8	16.05
303.15 K, x2 = 0.5693	1420.5	21.63
303.15 K, x2 = 0.6532	1451.2	29.58
303.15 K, x2 = 0.737	1479.5	38.8
303.15 K, x2 = 0.7927	1496.9	45.62
303.15 K, x2 = 0.8484	1514	53
303.15 K, x2 = 0.9242	1534.4	63.9
308.15 K, x2 = 0	1139.1	0.392
308.15 K, x2 = 0.0694	1176.1	0.448
308.15 K, x2 = 0.1387	1211.5	–
308.15 K, x2 = 0.1889	1236.2	–
308.15 K, x2 = 0.239	1260.5	–
308.15 K, x2 = 0.3354	1305.3	3.796
308.15 K, x2 = 0.4317	1347.7	7.6
308.15 K, x2 = 0.5005	1376.1	11.15
308.15 K, x2 = 0.5693	1404.1	15.41
308.15 K, x2 = 0.6532	1435.8	21.55
308.15 K, x2 = 0.737	1465.1	28.73
308.15 K, x2 = 0.7927	1483.3	34.08
308.15 K, x2 = 0.9242	1521	48.5
313.15 K, x2 = 0.0694	1155.4	0.378
313.15 K, x2 = 0.1889	1216.6	–
313.15 K, x2 = 0.3354	1286.1	2.165
313.15 K, x2 = 0.4317	1329.6	5.02
313.15 K, x2 = 0.5005	1359.4	7.79
313.15 K, x2 = 0.5693	1388.1	11.15
313.15 K, x2 = 0.6532	1420.6	16.05
313.15 K, x2 = 0.737	1452.4	21.85
313.15 K, x2 = 0.7927	1471.1	26.2
313.15 K, x2 = 0.8484	1488.1	30.93
313.15 K, x2 = 0.9242	1510.3	38.01
318.15 K, x2 = 0.0694	1134.5	0.355
318.15 K, x2 = 0.1387	1170.8	–
318.15 K, x2 = 0.1889	1195.7	–
318.15 K, x2 = 0.239	1220	–
318.15 K, x2 = 0.4317	1310.6	3.27
318.15 K, x2 = 0.5005	1341.6	5.53
318.15 K, x2 = 0.5693	1371.6	8.34
318.15 K, x2 = 0.737	1437.5	17.48
318.15 K, x2 = 0.7927	1457.2	21.23
318.15 K, x2 = 0.8484	1475.3	25.34
